Laboratory results reported in patent publication US20250295609A1, “COMPOUND HAVING ANTI-ANDROGEN RECEPTOR ACTIVITY, AND USE THEREOF” (NANJING MINOVA PHARMACEUTICAL CO., LTD., priority 2022, published 2025).

Test system: human prostate cancer cells 22Rvl
Experiment: Cell viability inhibition assay (CTG) on 22Rvl cells
Assay type: cell-based
Details: 120 h, no DHT, 5 days, read-out: Inhibitory activity against human prostate cancer cells 22Rvl IC50
Excerpt: Human prostate cancer cells LNCaP and human prostate cancer cells 22Rvl are present in patients with prostate cancer. An androgen, DHT, is able to promote the growth of human prostate cancer cells LNCaP. Using the cell model described above was intended to study the inhibitory effects of the compounds of the present disclosure on the growth of human prostate cancer cells (human prostate cancer cells LNCaP and human prostate cancer cells 22Rvl) in the presence or absence of DHT. […]
The medium in the culture dish was discarded, and 5 mL of trypsin was added for digestion for about 3 mins. […] 1 mL of the cells was taken and counted, and the cell viability was detected. […]
After the cells were attached to the well, for the human prostate cancer cells LNCaP group, test compounds (0.1 μM, 0.3 μM, 1 μM, 3 μM, 10 μM, and 30 μM) and DHT (1 nM, inducing the expression of AR) were added to the 96-well plate, and the plate was incubated for another 5 days; for the human prostate cancer cells 22Rvl group, test compounds (0.1 μM, 0.3 μM, 1 μM, 3 μM, 10 μM, and 30 μM) were added to the 96-well plate, and the plate was incubated for another 5 days. […] The cell viability was detected by using a CTG method. […] The fluorescence value in each well was then detected. […] For data analysis, an assay background value was subtracted from all data points, which was determined in wells containing the medium but no cells. […]

IC50: 0.35 µM
Structure (SMILES): COc1ccc(/C=C/C(=O)C2(C(=O)/C=C/c3ccc(OC)c(OC)c3)CCC(F)(F)CC2)cc1OC [Compound 8]
